From publication PMC5218480 (PLoS ONE, 2017)

Tested on: MV-4-11 cells
Assay: Gene expression microarray analysis (Affymetrix PrimeView) and GSEA
Format: cell-based, human
Parameters: RFU PODN (11730768_x_at) / Fold change /veh PODN (11730768_x_at) / RFU LINC00158 (11744669_a_at) / Fold change /veh LINC00158 (11744669_a_at) / RFU DUSP10 (11751237_a_at) / Fold change /veh DUSP10 (11751237_a_at) / RFU ID3 (11757404_x_at) / Fold change /veh ID3 (11757404_x_at) / RFU PLEKHG5 (11737974_s_at) / Fold change /veh PLEKHG5 (11737974_s_at) / RFU LRRC4B (11730491_at) / Fold change /veh LRRC4B (11730491_at) / RFU GIMAP4 (11747438_a_at) / Fold change /veh GIMAP4 (11747438_a_at) / RFU KRT8 (11758183_x_at) / Fold change /veh KRT8 (11758183_x_at) / RFU CNN1 (11734310_a_at) / Fold change /veh CNN1 (11734310_a_at) / RFU VPS37D (11726825_at) / Fold change /veh VPS37D (11726825_at) / RFU C10orf10 (11716522_x_at) / Fold change /veh C10orf10 (11716522_x_at) / RFU KIR2DL2 /// KIR2DL4 /// KIR2DL5A /// KIR2DL5B /// KIR2DS1 /// KIR2DS2 /// KIR2DS3 /// KIR2DS4 /// KIR3DL3 /// KIR3DL3 /// KIR3DS1 (11738374_at) / Fold change /veh KIR2DL2 /// KIR2DL4 /// KIR2DL5A /// KIR2DL5B /// KIR2DS1 /// KIR2DS2 /// KIR2DS3 /// KIR2DS4 /// KIR3DL3 /// KIR3DL3 /// KIR3DS1 (11738374_at) / RFU C1QL1 (11718748_at) / Fold change /veh C1QL1 (11718748_at) / RFU TMPRSS4 (11747572_a_at) / Fold change /veh TMPRSS4 (11747572_a_at) / RFU HAMP (11756126_x_at) / Fold change /veh HAMP (11756126_x_at) / RFU RNFT2 (11725882_a_at) / Fold change /veh RNFT2 (11725882_a_at) / RFU NR4A2 (11747474_a_at) / Fold change /veh NR4A2 (11747474_a_at) / RFU ABCC12 (11746883_a_at) / Fold change /veh ABCC12 (11746883_a_at) / RFU TMEM136 (11760407_x_at) / Fold change /veh TMEM136 (11760407_x_at) / RFU CLDN22 /// WWC2 (11732394_at) / Fold change /veh CLDN22 /// WWC2 (11732394_at) / RFU HLA-DPB1 (11760878_x_at) / Fold change /veh HLA-DPB1 (11760878_x_at) / RFU SPINT1 (11716480_a_at) / Fold change /veh SPINT1 (11716480_a_at) / RFU GAP43 (11754022_s_at) / Fold change /veh GAP43 (11754022_s_at) / RFU A4GNT (11735810_at) / Fold change /veh A4GNT (11735810_at) / RFU PRB3 (11715151_x_at) / Fold change /veh PRB3 (11715151_x_at) / RFU TUBB4B (11761932_at) / Fold change /veh TUBB4B (11761932_at) / RFU CAPN14 (11732068_a_at) / Fold change /veh CAPN14 (11732068_a_at) / RFU TMCC2 (11721928_a_at) / Fold change /veh TMCC2 (11721928_a_at) / RFU IRGQ (11745062_a_at) / Fold change /veh IRGQ (11745062_a_at) / RFU FAM174B (11720279_a_at) / Fold change /veh FAM174B (11720279_a_at) / RFU TMPRSS4 (11748680_a_at) / Fold change /veh TMPRSS4 (11748680_a_at) / RFU FAM212B (11763350_a_at) / Fold change /veh FAM212B (11763350_a_at) / RFU PLEKHG5 (11743358_a_at) / Fold change /veh PLEKHG5 (11743358_a_at) / RFU ZSCAN30 (11745921_a_at) / Fold change /veh ZSCAN30 (11745921_a_at) / RFU CMKLR1 (11741424_a_at) / Fold change /veh CMKLR1 (11741424_a_at) / RFU LOC101060620 /// MAPK8IP1 (11723275_at) / Fold change /veh LOC101060620 /// MAPK8IP1 (11723275_at) / RFU SPTSSB (11747773_x_at) / Fold change /veh SPTSSB (11747773_x_at) / RFU PRSS12 (11739890_at) / Fold change /veh PRSS12 (11739890_at) / RFU BIN1 (11741810_x_at) / Fold change /veh BIN1 (11741810_x_at) / RFU WNT11 (11732464_a_at) / Fold change /veh WNT11 (11732464_a_at) / RFU C10orf10 (11716521_a_at) / Fold change /veh C10orf10 (11716521_a_at) / RFU C5orf56 (11738089_at) / Fold change /veh C5orf56 (11738089_at) / RFU CYB561 (11721691_x_at) / Fold change /veh CYB561 (11721691_x_at) / RFU ANKRD19P (11752326_a_at) / Fold change /veh ANKRD19P (11752326_a_at) / RFU OR2T12 /// OR2T33 /// OR2T8 (11738714_s_at) / Fold change /veh OR2T12 /// OR2T33 /// OR2T8 (11738714_s_at) / RFU VCAN (11748164_a_at) / Fold change /veh VCAN (11748164_a_at) / RFU JSRP1 (11732532_at) / Fold change /veh JSRP1 (11732532_at) / RFU KRTAP10-11 (11738290_x_at) / Fold change /veh KRTAP10-11 (11738290_x_at) / RFU MYO3A (11730013_a_at) / Fold change /veh MYO3A (11730013_a_at) / RFU EBF3 (11725865_a_at) / Fold change /veh EBF3 (11725865_a_at) / RFU CAMK2N1 (11719241_x_at) / Fold change /veh CAMK2N1 (11719241_x_at) / RFU C5orf56 (11738088_a_at) / Fold change /veh C5orf56 (11738088_a_at) / RFU OLFML3 (11715873_a_at) / Fold change /veh OLFML3 (11715873_a_at) / RFU LOC100653217 /// NTM (11731650_a_at) / Fold change /veh LOC100653217 /// NTM (11731650_a_at) / RFU MAPK11 (11762145_a_at) / Fold change /veh MAPK11 (11762145_a_at) / RFU FIZ1 (11724087_x_at) / Fold change /veh FIZ1 (11724087_x_at) / RFU OASL (11726364_x_at) / Fold change /veh OASL (11726364_x_at) / RFU SOX15 (11748057_x_at) / Fold change /veh SOX15 (11748057_x_at) / RFU CD79A (11719716_a_at) / Fold change /veh CD79A (11719716_a_at) / RFU HIST1H1D (11736915_at) / Fold change /veh HIST1H1D (11736915_at) / RFU CASKIN2 (11723855_a_at) / Fold change /veh CASKIN2 (11723855_a_at) / RFU LOC730098 (11760151_x_at) / Fold change /veh LOC730098 (11760151_x_at) / RFU OR4N2 (11742367_at) / Fold change /veh OR4N2 (11742367_at) / RFU PRRT2 (11749266_a_at) / Fold change /veh PRRT2 (11749266_a_at) / RFU SNX32 (11753110_a_at) / Fold change /veh SNX32 (11753110_a_at) / RFU CDHR5 (11726645_a_at) / Fold change /veh CDHR5 (11726645_a_at) / RFU RCAN1 (11760418_a_at) / Fold change /veh RCAN1 (11760418_a_at) / RFU FAM167A (11723789_a_at) / Fold change /veh FAM167A (11723789_a_at) / RFU FAM26E (11764081_at) / Fold change /veh FAM26E (11764081_at) / RFU ISYNA1 (11749810_s_at) / Fold change /veh ISYNA1 (11749810_s_at) / RFU ACY1 (11761880_at) / Fold change /veh ACY1 (11761880_at) / RFU 11764098_at / Fold change /veh 11764098_at / RFU SAMD14 (11745864_x_at) / Fold change /veh SAMD14 (11745864_x_at) / RFU NPB (11741838_a_at) / Fold change /veh NPB (11741838_a_at) / RFU TMPRSS6 (11731388_a_at) / Fold change /veh TMPRSS6 (11731388_a_at) / RFU KRTAP10-2 (11738614_at) / Fold change /veh KRTAP10-2 (11738614_at) / RFU ARHGAP8 /// PRR5-ARHGAP8 (11727945_x_at) / Fold change /veh ARHGAP8 /// PRR5-ARHGAP8 (11727945_x_at) / RFU KRTAP5-7 /// NADSYN1 (11734609_at) / Fold change /veh KRTAP5-7 /// NADSYN1 (11734609_at) / RFU RASL12 (11751679_a_at) / Fold change /veh RASL12 (11751679_a_at) / RFU CDKN2B (11736163_a_at) / Fold change /veh CDKN2B (11736163_a_at) / RFU PRF1 (11729649_at) / Fold change /veh PRF1 (11729649_at) / RFU, ZNF638 /// ZNF638-IT1 / Fold change vs veh, ZNF638 /// ZNF638-IT1 / RFU, PANK3 / Fold change vs veh, PANK3 / RFU, SH3YL1 / Fold change vs veh, SH3YL1 / RFU, ZEB2 / Fold change vs veh, ZEB2 / RFU, NRIP1 / Fold change vs veh, NRIP1 / RFU, PTTG1IP / Fold change vs veh, PTTG1IP / RFU, CAPN2 / Fold change vs veh, CAPN2 / RFU, MED14 / Fold change vs veh, MED14 / RFU, SNORA58 / Fold change vs veh, SNORA58 / RFU, C1orf63 / Fold change vs veh, C1orf63 / RFU, LRRFIP1 / Fold change vs veh, LRRFIP1 / RFU, NDUFAF7 / Fold change vs veh, NDUFAF7 / RFU, SLC12A2 / Fold change vs veh, SLC12A2 / RFU, IBTK / Fold change vs veh, IBTK / RFU, ESF1 / Fold change vs veh, ESF1 / Fold change vs veh, TMEM50B / RFU, TAOK1 / Fold change vs veh, TAOK1 / RFU, ACBD3 / Fold change vs veh, ACBD3 / RFU, TMA16 / Fold change vs veh, TMA16 / RFU, RWDD3 / Fold change vs veh, RWDD3 / RFU, BCAT1 / Fold change vs veh, BCAT1 / RFU, EDEM3 / Fold change vs veh, EDEM3 / RFU, TMEM33 / Fold change vs veh, TMEM33 / RFU, WDR75 / Fold change vs veh, WDR75 / RFU, AHCTF1 / Fold change vs veh, AHCTF1 / RFU, TFRC / Fold change vs veh, TFRC / RFU, ZDHHC17 / Fold change vs veh, ZDHHC17 / RFU, NOM1 / Fold change vs veh, NOM1 / RFU, ARL8B / Fold change vs veh, ARL8B / RFU, ZBTB11 / Fold change vs veh, ZBTB11 / RFU, TAMM41 / Fold change vs veh, TAMM41 / RFU, KIAA1704 /// LOC100996395 / Fold change vs veh, KIAA1704 /// LOC100996395 / RFU, ING1 / Fold change vs veh, ING1 / RFU, TRMT61B / Fold change vs veh, TRMT61B / RFU, FUBP3 / Fold change vs veh, FUBP3 / RFU, TP53 / Fold change vs veh, TP53 / RFU, TNKS2 / Fold change vs veh, TNKS2 / RFU, ZFP14 / Fold change vs veh, ZFP14 / RFU, ACTR2 / Fold change vs veh, ACTR2 / RFU, PPP3R1 / Fold change vs veh, PPP3R1 / RFU, PIK3R1 / Fold change vs veh, PIK3R1 / RFU, HNRNPA1 / Fold change vs veh, HNRNPA1 / RFU, RNF170 / Fold change vs veh, RNF170 / RFU, ZNF28 / Fold change vs veh, ZNF28 / RFU, RNGTT / Fold change vs veh, RNGTT / RFU, OGT / Fold change vs veh, OGT / RFU, BRD1 / Fold change vs veh, BRD1 / RFU, MARS / Fold change vs veh, MARS / RFU, ZNF655 / Fold change vs veh, ZNF655 / RFU, FAHD1 / Fold change vs veh, FAHD1 / RFU, BDP1 / Fold change vs veh, BDP1 / RFU, LRRCC1 / Fold change vs veh, LRRCC1 / RFU, ARID1A / Fold change vs veh, ARID1A / RFU, ZNF146 / Fold change vs veh, ZNF146 / RFU, ZNF330 / Fold change vs veh, ZNF330 / RFU, GPN3 / Fold change vs veh, GPN3 / RFU, C9orf123 / Fold change vs veh, C9orf123 / RFU, N4BP2L2 / Fold change vs veh, N4BP2L2 / RFU, ARFIP1 / Fold change vs veh, ARFIP1 / RFU, FAM179B / Fold change vs veh, FAM179B / RFU, BCL10 / Fold change vs veh, BCL10 / RFU, UHRF1BP1L / Fold change vs veh, UHRF1BP1L / RFU, BET1 / Fold change vs veh, BET1 / RFU, CNOT2 / Fold change vs veh, CNOT2 / RFU, ZNF268 / Fold change vs veh, ZNF268 / Fold change vs veh, ZNF507 / RFU, DGCR2 / Fold change vs veh, DGCR2 / RFU, WDSUB1 / Fold change vs veh, WDSUB1 / Fold change vs veh, HSP90B1 /// MIR3652 / RFU, ADSS / Fold change vs veh, ADSS / RFU, GK / Fold change vs veh, GK / RFU, ZNF148 / Fold change vs veh, ZNF148 / RFU, TAF9 / Fold change vs veh, TAF9 / RFU, SLC1A5 / Fold change vs veh, SLC1A5 / RFU, SLMO2 / Fold change vs veh, SLMO2 / RFU, ABCC4 / Fold change vs veh, ABCC4 / RFU, LOC101060439 /// RAP1B / Fold change vs veh, LOC101060439 /// RAP1B / RFU, RFX7 / Fold change vs veh, RFX7 / RFU, GTPBP10 / Fold change vs veh, GTPBP10 / RFU, CNEP1R1 / Fold change vs veh, CNEP1R1 / RFU, BIVM-ERCC5 /// ERCC5 / Fold change vs veh, BIVM-ERCC5 /// ERCC5 / RFU, ILF3 / Fold change vs veh, ILF3 / RFU 11762660_at / Fold change /veh 11762660_at / RFU VCAN (11757783_s_at) / Fold change /veh VCAN (11757783_s_at) / RFU DDX43 (11728927_at) / Fold change /veh DDX43 (11728927_at) / RFU KRT8 (11758188_x_at) / Fold change /veh KRT8 (11758188_x_at) / RFU NKD1 (11759106_at) / Fold change /veh NKD1 (11759106_at) / RFU SRD5A1 (11742802_a_at) / Fold change /veh SRD5A1 (11742802_a_at) / RFU TPSAB1 /// TPSB2 (11721975_s_at) / Fold change /veh TPSAB1 /// TPSB2 (11721975_s_at) / RFU GSTM3 (11746129_a_at) / Fold change /veh GSTM3 (11746129_a_at) / RFU IL23R (11737362_x_at) / Fold change /veh IL23R (11737362_x_at) / RFU TMEM51 (11727254_a_at) / Fold change /veh TMEM51 (11727254_a_at) / RFU PIWIL2 (11732686_x_at) / Fold change /veh PIWIL2 (11732686_x_at) / RFU ORM1 (11744905_x_at) / Fold change /veh ORM1 (11744905_x_at) / RFU CCDC152 (11743942_at) / Fold change /veh CCDC152 (11743942_at) / RFU ECM1 (11717891_a_at) / Fold change /veh ECM1 (11717891_a_at) / RFU IL23R (11748794_a_at) / Fold change /veh IL23R (11748794_a_at) / RFU TNFAIP8L3 (11732012_x_at) / Fold change /veh TNFAIP8L3 (11732012_x_at) / RFU MBOAT4 (11741988_at) / Fold change /veh MBOAT4 (11741988_at) / RFU 11764193_at / Fold change /veh 11764193_at / RFU TMEM53 (11763286_at) / Fold change /veh TMEM53 (11763286_at) / RFU MAGEB2 (11727129_at) / Fold change /veh MAGEB2 (11727129_at) / RFU TMEM200A (11744735_a_at) / Fold change /veh TMEM200A (11744735_a_at) / RFU CCDC152 (11751479_a_at) / Fold change /veh CCDC152 (11751479_a_at) / RFU FAM211A (11726209_a_at) / Fold change /veh FAM211A (11726209_a_at) / RFU RGS16 (11746705_a_at) / Fold change /veh RGS16 (11746705_a_at) / RFU VCAN (11755009_s_at) / Fold change /veh VCAN (11755009_s_at) / RFU RHOB (11743442_s_at) / Fold change /veh RHOB (11743442_s_at) / RFU RGS16 (11720943_a_at) / Fold change /veh RGS16 (11720943_a_at) / RFU RGS16 (11720944_at) / Fold change /veh RGS16 (11720944_at) / RFU, VPS4B / Fold change vs veh, VPS4B / RFU, CREB1 / Fold change vs veh, CREB1 / RFU, DNAJC13 / Fold change vs veh, DNAJC13 / RFU, GNAQ / Fold change vs veh, GNAQ / RFU, CDK5R1 / Fold change vs veh, CDK5R1 / RFU, ZRANB3 / Fold change vs veh, ZRANB3 / RFU, CUL4A / Fold change vs veh, CUL4A / RFU, CCNY / Fold change vs veh, CCNY / RFU, UFL1 / Fold change vs veh, UFL1 / RFU, COG3 / Fold change vs veh, COG3 / RFU, DIAPH2 / Fold change vs veh, DIAPH2 / RFU, SKA2 / Fold change vs veh, SKA2 / RFU, AFF3 / Fold change vs veh, AFF3 / RFU, LMF1 / Fold change vs veh, LMF1 / RFU, IPO11 / Fold change vs veh, IPO11 / RFU, DFFB / Fold change vs veh, DFFB / RFU, FOXP1 / Fold change vs veh, FOXP1 / RFU, CARD8 / Fold change vs veh, CARD8 / RFU, STRN3 / Fold change vs veh, STRN3 / RFU, ADK / Fold change vs veh, ADK / RFU, RASSF2 / Fold change vs veh, RASSF2 / RFU, WIPF1 / Fold change vs veh, WIPF1 / RFU, LARP1B / Fold change vs veh, LARP1B / RFU, RASA1 / Fold change vs veh, RASA1 / RFU, RB1 / Fold change vs veh, RB1 / RFU, PPFIA1 / Fold change vs veh, PPFIA1 / RFU, MAT2A / Fold change vs veh, MAT2A / RFU, CCT5 / Fold change vs veh, CCT5 / RFU, WDR92 / Fold change vs veh, WDR92 / RFU, CUX1 / Fold change vs veh, CUX1 / RFU, TTC7A / Fold change vs veh, TTC7A / RFU, TMEM135 / Fold change vs veh, TMEM135 / RFU, DEPTOR / Fold change vs veh, DEPTOR / RFU, CPM / Fold change vs veh, CPM / RFU, DNAJB6 / Fold change vs veh, DNAJB6 / RFU, CACNA2D3 / Fold change vs veh, CACNA2D3 / RFU, DTX4 / Fold change vs veh, DTX4 / RFU, TFCP2 / Fold change vs veh, TFCP2 / RFU, GMCL1 /// GMCL1P1 / Fold change vs veh, GMCL1 /// GMCL1P1 / RFU, AEBP2 / Fold change vs veh, AEBP2 / RFU, SNHG1 /// SNORD22 /// SNORD25 /// SNORD26 /// SNORD27 /// SNORD28 /// SNORD29 /// SNORD31 / Fold change vs veh, SNHG1 /// SNORD22 /// SNORD25 /// SNORD26 /// SNORD27 /// SNORD28 /// SNORD29 /// SNORD31 / Fold change (Aza/veh), C12orf56 (ProbeSet 11735607_a_at) / Fold change (ACY-1035/veh), C12orf56 (ProbeSet 11735607_a_at) / Fold change (Aza/veh), FGFR1OP (ProbeSet 11751329_s_at) / Fold change (ACY-1035/veh), FGFR1OP (ProbeSet 11751329_s_at) / Fold change (Aza/veh), VPS36 (ProbeSet 11739960_a_at) / Fold change (ACY-1035/veh), VPS36 (ProbeSet 11739960_a_at) / RFU SYPL1 (11715823_x_at) / Fold change /veh SYPL1 (11715823_x_at) / RFU IGFBP7 (11715501_s_at) / Fold change /veh IGFBP7 (11715501_s_at) / RFU REEP3 (11722064_at) / Fold change /veh REEP3 (11722064_at) / RFU IGLL1 (11728026_x_at) / Fold change /veh IGLL1 (11728026_x_at): dose or concentration left out as unconfirmed
Conditions: ProbeSet 11726703_a_at; LIST B

Nc1ncn([C@@H]2O[C@H](CO)[C@@H](O)[C@H]2O)c(=O)n1 [azacitidine]
Fold change vs veh, BCL10: 0.88
